According to US9814752B2, “Agonists of guanylate cyclase useful for the treatment of hypercholesterolemia, atherosclerosis, coronary heart disease, gallstone, obesity and other cardiovascular diseases” (SYNERGY PHARMACEUTICALS, INC., priority 2007, dated 2017):
Positions of bridges follow the written chain, without caps; N, C: chain ends. Residues, ends and D or L forms follow the SMILES beside them.

Legend:
CaCo-2 cells = assay: ^3H-taurocholate (bile acid) absorption by CaCo-2 monolayer; assay type: cell-based, human; settings: for absorption of ^3H-taurocholate (kinetics, FIG. 4): 16-day CaCo-2 monolayers, incubation up to 60 minutes, average of three determinations; for absorption of ^3H-taurocholate (kinetics, FIG. 4) / absorption of ^3H-taurocholate (FIG. 5): 30 min pre-incubation; for absorption of ^3H-taurocholate (FIG. 5): 20-day CaCo-2 cells, 60 minutes with 1 uCi ^3H-taurocholate, quadruplets
Method: (§1) CaCo-2, human colon carcinoma cells, were obtained from American Type Culture Collection (ATCC) and cultured in DMEM medium containing 10% fetal bovine serum, 1% penicillin-streptomycin, 2 mM L-glutamine, 1% non-essential-amino acids. Cells were fed fresh medium every third day and grown for 16-21 days to form completely differentiated monolayer. Fully differentiated CaCo-2 cells are known to express high density of GC-C receptors.
Phosphatidyl choline was dissolved in ethanol to make 50 mM stock solution. Calculated volume of the stock solution of phosphatidyl choline was mixed with 3H-taurocholate in a plastic tube and dried under argon gas at 80° C. The dried material was dissolved in transport buffer to get the final concentration of phosphatidyl choline (0.5 mM) and of 3H-taurocholate 10 μCi/mL.
CaCo-2 cells were grown in 24-well plates for 16 days to allow complete monolayer formation and cell differentiation. Completely differentiated monolayers were then pre-incubated with 250 μL of the transport buffer (HEPES 25 mM, NaCl 120 mM, KCl 5.4 mM, CaCl2 1.8 mM and MgSO4, pH 7.5) containing either SP-304 alone or in combination with PDE inhibitors such as IBMX, SS and ZAP. The monolayers were pre-incubated with transport buffer containing either of the following: vehicle (control), 1 mM 8-bromo-cGMP, 500 μM SS, 500 μM ZAP, 1 μM SP-304, 0.1 μM SP-304+500 μM SS and 1 μM SP-304+500 μM ZAP. After the indicated pre-incubation time, 50 μL, of ^3H-taurocholate (1 μCi) cocktail was added and cells were incubated for an additional 60 minutes, washed three times with ice cold PBS. Cells were lysed with 0.5 N NaOH for 4 hours and radioactivity in the lysate was counted in a scintillation counter.
16-day grown monolayers of CaCo-2 cells in 24-well plates were pre-incubated with transport buffer containing the compounds as indicated in the figure for 30 minutes. After the pre-incubation, 1 μCi of ^3H-taurocholate cocktail was added in each well and cells were further incubated for 60 minutes. Cells were washed three times with ice cold PBS and lysed with 0.5 N NaOH and lysates were counted for radioactivity in a scintillation counter. Results are expressed as an average of three determinations. Results on the x-axis were plotted in logarithmic scale.
After the pre-incubation, 1 μCi of ^3H-taurocholate cocktail was added in each well and cells were further incubated for 60 minutes. Cells were washed three times with ice cold PBS and lysed with 0.5 N NaOH and lysates were counted for radioactivity in a scintillation counter. This experiment was run in quadruplets and results are expressed as mean±SD.
The procedure used in this experiment was essentially the same except that a lower concentration of ZAP (250 μM) in combination experiments with SP-304.

GC-C receptors = target: T1, GC-C receptors (Homo sapiens, UniProt P25092); assay: Cyclic GMP stimulation assay in CaCo-2 monolayers (cGMP ELISA); assay type: cell-based; settings: for effect of PDE inhibitor on stimulation of cGMP production by SP-304: PDE inhibitor in combination with SP-304, 30 minutes
T1 construct: host or cells: CaCo-2 human colon carcinoma cells, differentiated monolayers grown for 16 days
Method: as §1
Biological activity of the GCRA peptides was assayed as previously reported (5). Briefly, 16 days grown monolayers of CaCo-2 cells in 24-well plates were washed twice with 250 μl of DMEM containing 50 mM HEPES (pH 7.4), pre-incubated at 37° C. for 10 min with 250 μl of DMEM containing 50 mM HEPES (pH 7.4) and 1 mM isobutylmethylxanthine (IBMX), followed by incubation with GCRA peptides (0.1 nM to 10 μM) for 30 min. The medium was aspirated, and the reaction was terminated by the addition of 3% perchloric acid. Following centrifugation, and neutralization with 0.1 N NaOH, the supernatant was used directly for measurements of cGMP using an ELISA kit (Caymen Chemical, Ann Arbor, Mich.)
Monolayers were treated […] of serum free DMEM for 30 minutes with either SP-304 alone or in combination with phosphodiesterase inhibitors such as, 3-isobutyl-1-methylxanthine (IBMX), sulindac sulfone (SS) and zaprinast (ZAP). After the incubation, monolayer were lysed with 250 μL of 3% perchloric acid. The lysate was neutralized with 0.1 N NaOH and used for ELISA to determine the concentration of cGMP. The assay procedure was essentially the same as described (5). […] Since CaCo-2 cells overexpress phosphodiesterases (PDE), GC-C agonists are used in combination with PDE inhibitors to measure the actual stimulatory effect of GC-C agonists.

T1 sequence (P25092 24-1073): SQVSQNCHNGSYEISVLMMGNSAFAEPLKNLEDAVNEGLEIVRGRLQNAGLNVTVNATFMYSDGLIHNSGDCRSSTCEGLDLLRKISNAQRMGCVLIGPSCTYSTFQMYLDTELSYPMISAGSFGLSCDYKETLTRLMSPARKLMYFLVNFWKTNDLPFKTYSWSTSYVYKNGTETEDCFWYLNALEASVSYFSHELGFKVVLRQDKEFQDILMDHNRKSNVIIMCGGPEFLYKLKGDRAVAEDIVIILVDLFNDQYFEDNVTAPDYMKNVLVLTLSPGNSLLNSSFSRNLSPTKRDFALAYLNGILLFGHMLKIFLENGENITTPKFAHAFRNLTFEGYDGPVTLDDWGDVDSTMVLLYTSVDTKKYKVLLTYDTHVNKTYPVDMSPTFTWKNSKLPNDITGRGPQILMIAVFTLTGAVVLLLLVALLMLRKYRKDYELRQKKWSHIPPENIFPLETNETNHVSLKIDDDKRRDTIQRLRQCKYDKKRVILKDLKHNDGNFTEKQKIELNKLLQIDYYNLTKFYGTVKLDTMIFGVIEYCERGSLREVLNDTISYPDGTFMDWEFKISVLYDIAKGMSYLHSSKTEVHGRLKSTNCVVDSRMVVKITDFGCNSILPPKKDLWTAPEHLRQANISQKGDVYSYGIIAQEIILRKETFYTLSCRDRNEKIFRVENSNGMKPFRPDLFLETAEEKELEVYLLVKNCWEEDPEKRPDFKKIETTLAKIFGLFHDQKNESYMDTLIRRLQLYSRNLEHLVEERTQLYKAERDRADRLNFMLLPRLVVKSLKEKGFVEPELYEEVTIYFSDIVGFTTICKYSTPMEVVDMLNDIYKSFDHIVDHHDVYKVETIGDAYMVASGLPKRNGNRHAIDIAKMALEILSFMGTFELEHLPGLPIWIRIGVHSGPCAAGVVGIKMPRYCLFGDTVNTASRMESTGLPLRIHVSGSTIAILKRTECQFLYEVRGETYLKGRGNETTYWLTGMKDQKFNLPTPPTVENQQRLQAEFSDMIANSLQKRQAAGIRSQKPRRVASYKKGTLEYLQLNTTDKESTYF

effect of PDE inhibitor on stimulation of cGMP production by SP-304 (GC-C receptors) | Compound | absorption of ^3H-taurocholate (kinetics, FIG. 4) (CaCo-2 cells) | absorption of ^3H-taurocholate (FIG. 5) (CaCo-2 cells) | further results
synergistic effects | CC1=C(CC(=O)O)c2cc(F)ccc2/C1=C\c1ccc(S(C)(=O)=O)cc1 [SS, sulindac sulfone] |  |  | 
synergistic effects | CCCOc1ccccc1-c1nc2nn[nH]c2c(=O)[nH]1 [ZAP, zaprinast] |  |  | cGMP production among the PDE inhibitors combined with SP-304 (GC-C receptors; comparison of IBMX, SS and ZAP): maximum production of cGMP

Continued, compound first:

Compound | effect of PDE inhibitor on stimulation of cGMP production by SP-304 (GC-C receptors) | absorption of ^3H-taurocholate (kinetics, FIG. 4) (CaCo-2 cells) | absorption of ^3H-taurocholate (FIG. 5) (CaCo-2 cells) | further results
Nc1nc2c(nc(Br)n2[C@@H]2O[C@@H]3COP(=O)(O)O[C@H]3[C@H]2O)c(=O)[nH]1 [8-Br-cGMP, 8-bromo-cGMP] |  | inhibited | inhibited | 
CC(C)Cn1c(=O)n(C)c(=O)c2[nH]cnc21 [IBMX, 3-isobutyl-1-methylxanthine] | synergistic effects |  |  | 
CC(C)C[C@H](NC(=O)[C@@H]1CSSC[C@@H]2NC(=O)[C@H](CC(C)C)NC(=O)[C@H](CCC(=O)O)NC(=O)[C@@H](NC(=O)[C@H](CCC(=O)O)NC(=O)[C@H](CC(=O)O)NC(=O)[C@@H](N)CC(N)=O)CSSC[C@H](NC(=O)[C@H](C)NC(=O)[C@H](C(C)C)NC(=O)[C@H](CC(N)=O)NC(=O)[C@H](C(C)C)NC2=O)C(=O)N[C@@H]([C@@H](C)O)C(=O)NCC(=O)N1)C(=O)O [SP-304, Asn^1-Asp^2-Glu^3-Cys^4-Glu^5-Leu^6-Cys^7-Val^8-Asn^9-Val^10-Ala^11-Cys^12-Thr^13-Gly^14-Cys^15-Leu^16] (H-NDECELCVNVACTGCL-OH; disulfide 4-12, 7-15; N-terminus assumed) |  | inhibited | inhibited | cGMP production by CaCo-2 cells in response to stimulation (GC-C receptors; serum free DMEM, 30 minutes, cGMP by ELISA): produced cGMP in response to stimulation; inhibition in absorption of ^3H-taurocholate (FIG. 6), SP-304 alone (CaCo-2 cells; SP-304 0.1 uM alone): did not produce much inhibition; inhibition of ^3H-taurocholate absorption (FIG. 6), SP-304 in combination with ZAP (CaCo-2 cells; SP-304 0.1 uM in combination with ZAP 250 uM, compared with SP-304 alone): greater effect on inhibition
